These results are taken from patent US8178699B2, “Modulators of CCR9 receptor and methods of use thereof” (Pfizer Inc., priority 2008, dated 2012).

As usually defined, the IC50 is the concentration that inhibits the measured activity by half.

Where a name gives a salt, the structure may show the parent alone.

The test has as its target T1, human CCR9 receptor (Homo sapiens, UniProt P51686).
T1 construct: expressed in transfected cells
T1 sequence (P51686 1-369): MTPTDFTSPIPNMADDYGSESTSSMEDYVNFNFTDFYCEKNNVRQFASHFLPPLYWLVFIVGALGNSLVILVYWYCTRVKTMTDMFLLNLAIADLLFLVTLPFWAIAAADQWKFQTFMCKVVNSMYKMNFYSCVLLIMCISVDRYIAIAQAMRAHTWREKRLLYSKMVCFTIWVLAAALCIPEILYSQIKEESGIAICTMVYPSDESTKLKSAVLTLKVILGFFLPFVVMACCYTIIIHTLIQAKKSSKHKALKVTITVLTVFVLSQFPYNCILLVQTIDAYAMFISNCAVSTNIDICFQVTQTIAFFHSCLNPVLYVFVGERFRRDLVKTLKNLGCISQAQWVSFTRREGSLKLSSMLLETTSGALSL
As to the kind of experiment: CCR9 FLIPR/FlexStation Assay (inhibition of TECK induced calcium mobilization). Format: cell-based. The following applies: CCR9 antagonist activity; TECK induced calcium mobilization in CCR9-Flp-CHO cells stably over expressing human CCR9; rhTECK at EC70; read-out: Binding IC50. The source says:
Exemplary methods are described in US Publication Nos. US2004/0180892 and US2005/0049286, which are incorporated herein by reference. An exemplary assay for determining CCR9 antagonist activity of the compounds provided herein is CCR9 FLIPR/FlexStation Assay. In certain embodiments, the following protocol is used for the assay:
CCR9 FLIPR/FlexStation Assay Protocol
Calcium assay in FLIPR/FlexStation determines inhibitors of TECK induced calcium mobilization in CCR9-Flp-CHO cells that stably over express human CCR9 receptor. CCR9-Flp-CHO cells are seeded at 25,000 cells/well in a clear bottom, black wall 96-well plate (Greiner #655090) one day prior to assay. Cells are grown in a tissue culture incubator at 37° C. with 5% CO2 for 18 to 24 hours.
Wash buffer and dye loading buffer are prepared fresh each time the assay is performed. Wash buffer is prepared according to the following protocol: 20 ml 10×HBSS (Invitrogen Gibco #14065-056), 4 ml 1M HEPES (Sigma H3784), 174 ml sterile deionized water; then add 140 mg probenecid (Sigma P8761) dissolved in 2 ml 1M NaOH (Fisher S318) to solution and pH to 7.4. This wash buffer contains 1×HBSS, 20 mM HEPES and 2.5 mM probenecid. For one 96-well plate, dye loading buffer is prepared as following: 11 ml wash buffer, 44 μl Fluo-4/pluoronic acid mix (prepared from 22 μL aliquot of 2 mM Fluo-4 (Molecular Probes F14202, 1 mg/tube)+22 μl 20% pluronic F-127 (Molecular Probes P3000MP).
Cells are loaded with dye according to the protocol below:
1. Prepare wash buffer with 1×HBSS/HEPES at room temperature
2. Prepare loading buffer (keep in dark)
3. Aspirate culture media and wash with 100 μl wash buffer per well×1
4. Add 100 μl dye loading buffer to each well
5. Incubate at 37° C. for 30 minutes
6. Aspirate loading buffer
7. Wash with 100 μl wash buffer per well×3
8. Add 100 μl wash buffer per well
9. Incubate at 37° C. for 30 minutes
10. Assay plate with FLIPR or FlexStation
10 mM stock compounds in DMSO are prepared and diluted in DMSO to 1 mM. Compounds are diluted in wash buffer to make 8 point series dilutions containing same final concentration of DMSO (1%). Compounds are tested in duplicate wells for each point. Ligand rhTECK (R&D Systems 334-TK) was diluted to 6× of its EC70 with wash buffer. Appropriate amount of 6× ligand is added to each well. Data is analyzed using XLfit3 software to calculate IC50 value of antagonist activity for each compound.
CCR9 antagonist activity of exemplary compounds was determined using CCR9 FLIPR/FlexStation Assay as described in Section 4.4 and is provided in Table 1 below. The IC50 for the compounds are represented as follows: A≦100 nM; B>100-500 nM; C>500 nM.
As for `CC(C)(C)c1ccc(S(=O)(=O)Nc2ccsc2C(=O)O)c(Br)c1` [Example 1, 3-(2-bromo-4-tert-butylphenylsulfonamido)thiophene-2-carboxylic acid, sodium salt], the IC50 is ≤ 100 nM.
To `CC(C)(C)c1ccc(S(=O)(=O)Nc2ccsc2C(=O)O)c(-c2ccc(Cl)cc2)c1` [Example 2, 3-(5-tert-butyl-4′-chlorobiphenyl-2-ylsulfonamido)thiophene-2-carboxylic acid, disodium salt] belongs > 500 nM; to `CC(C)(C)c1ccc(S(=O)(=O)Nc2ccsc2C(=O)O)c(N2CCOCC2)c1` [Example 3, 3-[4-tert-butyl-2-(morpholin-4-yl)phenylsulfonamido]thiophene-2-carboxylic acid], 100 to 500 nM; to `CN(C)c1ccc(-c2cc(C(C)(C)C)ccc2S(=O)(=O)Nc2ccsc2C(=O)O)cc1` [Example 4, 3-[5-tert-butyl-4′-(dimethylamino)biphenyl-2-ylsulfonamido]thiophene-2-carboxylic acid, disodium salt], > 500 nM.
For `CC(C)(C)c1ccc(S(=O)(=O)Nc2ccsc2C(=O)O)c(-c2cncnc2)c1` [Example 5, 3-[4-tert-butyl-2-(pyrimidin-5-yl)phenylsulfonamido]thiophene-2-carboxylic acid, disodium salt], the IC50 is > 500 nM.
On to `CC(C)(C)c1ccc(S(=O)(=O)Nc2ccsc2C(=O)O)c(Cl)c1` [Example 6, 3-(4-tert-Butyl-2-chlorophenylsulfonamido)thiophene-2-carboxylic acid, disodium salt], for which the IC50 was ≤ 100 nM.
For `CC(C)(C)c1ccc(S(=O)(=O)Nc2ccsc2C(=O)O)c(/C=C/c2ccccc2)c1` [Example 7, 3-(4-tert-butyl-2-styrylphenylsulfonamido)thiophene-2-carboxylic acid, disodium salt], the half-inhibitory concentration (IC50) is 100 to 500 nM.
To `COc1cc(C(C)(C)C)ccc1S(=O)(=O)Nc1ccsc1C(=O)O` [Example 8, 3-(tert-butyl-2-methoxyphenylsulfonamido)thiophene-2-carboxylic acid, disodium salt] belongs ≤ 100 nM; to `CC(C)(C)c1ccc(S(=O)(=O)Nc2ccsc2C(=O)O)c(O)c1` [Example 9, 3-(4-tert-butyl-2-hydroxyphenylsulfonamido)thiophene-2-carboxylic acid, trisodium salt], 100 to 500 nM; to `CC(C)(C)c1ccc(S(=O)(=O)Nc2ccsc2C(=O)O)c(C#N)c1` [Example 10, 3-(4-tert-butyl-2-cyanophenylsulfonamido)thiophene-2-carboxylic acid, disodium salt], ≤ 100 nM.
Regarding `CC(C)(C)c1ccc(S(=O)(=O)Nc2ccsc2C(=O)O)c(CCc2ccccc2)c1` [Example 11, 3-(4-tert-butyl-2-phenethylphenylsulfonamido)thiophene-2-carboxylic acid, disodium salt], the IC50 was ≤ 100 nM.
Consider `CC(=O)Oc1cc(C(C)(C)C)ccc1S(=O)(=O)Nc1ccsc1C(=O)O` [Example 12, 3-(2-acetoxy-4-tert-butylphenylsulfonamido)thiophene-2-carboxylic acid, disodium salt], for which the concentration for half-maximal inhibition (IC50) lay within 100 to 500 nM.
As to `Cc1cc(C(C)(C)C)ccc1S(=O)(=O)Nc1ccsc1C(=O)O` [Example 13, 3-(4-tert-butyl-2-methylphenylsulfonamido)thiophene-2-carboxylic acid, disodium salt], the concentration for half-maximal inhibition (IC50) was ≤ 100 nM.
`CCC(C)c1ccc(S(=O)(=O)Nc2ccsc2C(=O)O)cc1` (centres unmarked) [Example 14, 3-(4-sec-butylphenylsulfonamido)thiophene-2-carboxylic acid, disodium salt]: the IC50 is ≤ 100 nM.
Regarding `CN(c1ccsc1C(=O)O)S(=O)(=O)c1ccc(C(C)(C)C)cc1` [Example 15, 3-(4-tert-butyl-N-methylphenylsulfonamido)thiophene-2-carboxylic acid, sodium salt], the IC50 was > 500 nM.
Turning to `CC(C)(C)c1ccc(S(=O)(=O)Nc2ccsc2C(=O)O)cc1` [Example 16, 3-(4-tert-butylphenylsulfonamido)thiophene-2-carboxylic acid, disodium salt], the IC50 was ≤ 100 nM.
The value for `O=C(O)c1sccc1NS(=O)(=O)c1ccc2ccccc2c1` [Example 17, 3-(Naphthalene-2-sulfonamido)thiophene-2-carboxylic acid, disodium salt] was > 500 nM.
Consider `CCC(C)(C)c1ccc(S(=O)(=O)Nc2ccsc2C(=O)O)cc1` [Example 18, 3-(4-(1,1-Dimethylpropyl)phenylsulfonamido)thiophene-2-carboxylic acid, sodium salt], for which the IC50 lay in the range of 100 to 500 nM.
To `CCCCc1ccc(S(=O)(=O)Nc2ccsc2C(=O)O)c(Cl)c1` [Example 19, 3-(4-butyl-2-chlorophenylsulfonamido)thiophene-2-carboxylic acid, disodium salt] belongs ≤ 100 nM; to `O=C(O)c1sccc1NS(=O)(=O)c1ccc(Br)cc1` [Example 20, 3-(4-bromophenylsulfonamido)thiophene-2-carboxylic acid, disodium salt], > 500 nM.
To `O=C(O)c1sccc1NS(=O)(=O)c1ccc2c(c1)CCCC2` [Example 21, 3-(5,6,7,8-tetrahydronaphthalene-2-sulfonamido)thiophene-2-carboxylic acid, disodium salt] belongs 100 to 500 nM; to `Cc1ccccc1-c1cccc(S(=O)(=O)Nc2ccsc2C(=O)O)c1` [Example 22, 3-(2′-methylbiphenyl-3-ylsulfonamido)thiophene-2-carboxylic acid, disodium salt], > 500 nM; to `O=C(O)c1sccc1NS(=O)(=O)c1ccc(N2CCOCC2)cc1` [Example 23, 3-[(4-morpholin-4-yl)phenylsulfonamido]thiophene-2-carboxylic acid, disodium salt], > 500 nM.
For `CC(C)(C)c1ccc(S(=O)(=O)Nc2c(C(=O)O)sc3ccccc23)cc1` [Example 24, 3-(4-tert-butylphenylsulfonamido)benzo[b]thiophene-2-carboxylic acid, disodium salt], the half-maximal inhibitory concentration (IC50) was 100 to 500 nM.
The value for `CC(C)(C)c1ccc(S(=O)(=O)Nc2c(C(=O)O)sc3ccc(F)cc23)cc1` [Example 25, 3-(4-tert-butylphenylsulfonamido)-5-fluorobenzo[b]thiophene-2-carboxylic acid, disodium salt] was > 500 nM; that for `CC(C)(C)c1ccc(S(=O)(=O)Nc2c(C(=O)O)sc3ncccc23)cc1` [Example 26, 3-(4-tert-butylphenylsulfonamido)thieno[2,3-b]pyridine-2-carboxylic acid, disodium salt] was > 500 nM; that for `O=C(O)c1sccc1NS(=O)(=O)c1ccc(C(F)(F)F)cc1Br` [Example 27, 3-[2-bromo-4-(trifluoromethyl)phenylsulfonamido]thiophene-2-carboxylic acid, disodium salt] was ≤ 100 nM.
As to `CC(C)(C)c1ccc(S(=O)(=O)Nc2ccsc2C(=O)O)c(Oc2ccccc2)c1` [Example 28, 3-(4-tert-butyl-2-phenoxyphenylsulfonamido)thiophene-2-carboxylic acid, disodium salt], the IC50 is > 500 nM.
To `CC(C)(C)c1ccc(S(=O)(=O)Nc2ccsc2C(=O)O)c(F)c1` [Example 29, 3-(4-tert-butyl-2-fluorophenylsulfonamido)thiophene-2-carboxylic acid, disodium salt] belongs ≤ 100 nM.
